Data set [1] has as its system PTEN mRNA. The experiment in a line: PTEN mRNA levels in liver of Balb/c mice after single i.p. injection (Example 65). Format: in vivo, mouse. The conditions noted are these: 48 h; for Inhibition of PTEN in vivo (in words): 75 mg/kg; for % inhibition of PTEN mRNA expression: liver, single i.p. 75 mg/kg, normalized to saline-injected control. The procedure: In accordance with the present disclosure, oligomeric compounds were synthesized and tested for their ability to reduce PTEN expression in vivo at dose of 75 mg/kg. Six week old male Balb/c mice (Jackson Laboratory, Bar Harbor, Me.) were administered a single intraperitoneal (i.p) injection at 75 mg/kg of ISIS 467074 having a 5′-phosphate group and […] having a 5′-methylenephosphonate group, (PO(OH)2CH2—). A 5-10-5 gapped oligomer, ISIS 116847 having 2′-O-MOE modified nucleosides in wings with a 5′-phosphorothioate group was included for comparison.
Each dose group consisted of four animals. The mice were sacrificed 48 hours following the final administration to determine the PTEN mRNA levels in liver using real-time PCR and RIBOGREEN® RNA quantification reagent (Molecular Probes, Inc. Eugene, Oreg.) according to standard protocols. PTEN mRNA levels were determined relative to total RNA (using Ribogreen), prior to normalization to saline-treated control. Results are listed below as the average % inhibition of PTEN mRNA expression for each treatment group, normalized to saline-injected control.

Data set [2] is described as follows: In vivo stability: tissue level of intact compound (Example 66). The arrangement: species or system mouse. The conditions noted are these: Balb/c mice. The procedure:
[…] were homogenized in a homogenation buffer (20 mM Tris, pH 8, 20 mM EDTA and 0.1 M NaCl in 0.5% NP-40) at time points 0, 5, 10, 20, 30, 40 and 60 minutes (Exception: 06/408877 at time points 0, 15, 30, 60, 120 and 240 mins, 06/409044, at time points 0, 0.5, 1, 2, 4, 8, and 18 hours). An internal standard (18/355868, a 27-mer, 2′-O-methoxyethyl-modified phosphorothioate oligonucleotide, or 19/116847, a 5-10-5 gapmer, 2′-O-methoxyethyl-modified phosphorothioate oligonucleotide) with concentration at 20 μg/g was added prior to extraction. Tissue samples were extracted with 70 μL of NH4OH and 240 μL of phenol/chloroform/isoamyl alcohol (25:24:1). The supernatant was removed after centrifugation at 14000 rpm for […]. The remaining extractant was vortexed with an additional 500 μL of water and the aqueous layer was removed and combined with the supernatant after centrifugation at 14000 rpm for 2 minutes.
Triethylammonium acetate solution at 1M (500 μL) was added to the supernatant. The aqueous layer of the mixture was loaded onto the pre-conditioned Biotage™ Phenyl Solid Phase Extraction Plate (SPE plate) after centrifugation at 9000 rpm for 20 minutes. The SPE plate was washed several times with water. The sample was then eluted with 1.5 mL of 1% TEA in 90% MeOH and filtered through the Protein Precipitation Plate (Phenomenex™). The elutent was evaporated to dryness and diluted to 200 μL with 50% quenching buffer (8 M urea, 50 mM EDTA) and water before sample injection.
An Agilent 1100 Series LC/MSD system was connected in-line to a mass spectrometry. Mass spectrometer was operated in the electrospray negative ionization mode. The nebulizer nitrogen gas was set at […] and the drying nitrogen gas was set at 12 L/min. The drying temperature was 325° C. Samples (25 μL/well) were introduced via an auto sampler and reversed-phase chromatography was carried out with an)(Bridge OST C18 2.5 μm 2.1 mm×50 mm HPLC column using a flow rate of 300 μL/min at 55° C. The ion pair buffers consisted of A: 5 mM tributylammonium acetate (TBAA) in 20% acetonitrile and B: […] TBAA in 90% acetonitrile and the loading buffer was 25 mM TBAA in 25% Acetonitrile. Separation was performed on a 30% to 70% B in 9 min and then 80% B in 11 min gradient.
Quantitative analysis of oligonucleotide and internal standard by extracted ion chromatograms of the most abundant ions was performed using MSD ChemStation software.
The in vivo stability of the three oligomeric compounds in Example 65 was evaluated. The tissue samples were obtained from the animals in which PTEN was assessed. Tissue samples were collected and prepared using the same technique described in Example 64. Quantitative analysis of the oligonucleotides standard were performed by extracted ion chromatograms in the most abundant charge state (−4) using Chemstation software. The tissue level (μg/g) of intact compound of ISIS 116847, 467074 and 467076 was measured and are provided below.

The nature of data set [3]: Modified ssRNA 5′-phosphate serum stability assay. The class given is in vitro ADME. The conditions noted are these: 10 μM in 95% fresh mouse serum, 37° C., 0-24 h, LC/MS. From the text: A serum stability assay is useful for evaluating the stability of oligomeric compounds in the presences of nucleases and other enzymes found in serum. For example, the stability of a 5′-terminal phosphate group of an oligomeric compound can be evaluated by assessing the ability of the 5′-terminal phosphate group to remain attached to the oligomeric compound in the presence of serum. Accordingly, a serum stability assay was employed to evaluate the stability of modified ssRNAs having a 5′-terminal phosphate group.
Various modified ssRNAs, shown below, having a 5′-terminal phosphate group (10 μM) were dissolved in 95% of fresh mouse serum and incubated at 37° C. Aliquots of serum (100 μL) were removed after 0, 1, 3, 6 or 24 hours of incubation times. The serum samples were immediately quenched and snap frozen. The samples were extracted by the strong anion exchange (SAX) and octadecylsilyl (C-18) columns. For each incubation time, the amount of full length modified ssRNA having a 5′-terminal phosphate group was determined by LC/MS, and the half-life of the full length modified ssRNA having a 5′ terminal phosphate group was calculated. The results are expressed as half-time (T1/2) in the table below.

Oligonucleotides are written 5' to 3', each unit as a sugar letter and its base; * is a phosphorothioate linkage, no mark a phosphodiester; rarer units and linkages stand in square brackets, end groups in braces. Plain capitals give the bases only. [DMAEAc-N] = 2'-O-dimethylaminoethyl acetamide sugar (N: the base); [5'R-Me-N] = (R)-5'-methyl-2'-deoxyribonucleoside (N: the base); {Py} = methylenephosphonate group, PO(OH)2CH2-; e = 2'-O-(2-methoxyethyl) (MOE); [5mC] = 5-methylcytosine; d = 2'-deoxy (DNA); m = 2'-O-methyl; {P} = phosphate; f = 2'-fluoro

The results in this text go back to patent US8883752B2, “5′ and 2′ BIS-substituted nucleosides and oligomeric compounds prepared therefrom” (Isis Pharmaceuticals, Inc., priority 2008, dated 2014).

For “ISIS 116847: 5-10-5 gapped oligomer with 2′-O-MOE wings, included for comparison: meCeTeGemeCeTeAGmeCmeCTmeCTGGATeTeTeGeAe (e[5mC]*eT*eG*e[5mC]*eT*dA*dG*d[5mC]*d[5mC]*dT*d[5mC]*dT*dG*dG*dA*eT*eT*eT*eG*eA) [reference compound]”, in data set [1], the “Inhibition of PTEN in vivo (in words)” value is recorded as “potent inhibitor of PTEN” and the “% inhibition of PTEN mRNA expression” value is reported as 76%. In addition, the “Tissue Level of intact compound” value in data set [2] (75 mg/kg i.p., 48 h time point, LC-MS) is 131.1 µg/g. Also, the “Level of intact compound in tissue (in words)” value (“Level … (in words)” for short) in data set [2] (75 mg/kg, 48 h) is listed as “present at high levels”.
In the case of “ISIS 398701: modified ssRNA, SEQ ID NO 09: P-USfUfGfUfCfUfCfUfGfGfUfCfCfUfUfAfCfUfUf (antisense UUGUCUCUGGUCCUUACUU; 5'-phosphate, 2'-fluoro, phosphorothioate, chemistry not fully specified)”, the “T1/2 (h) of full length modified ssRNA having a 5′-terminal phosphate group” value in data set [3] was determined as 18.2 h.
In the case of “ISIS 404320: modified ssRNA targeting PTEN, SEQ ID NO 05: P-UfUfGfUfCfUfCfUfGfGfUfCfCfUfUfAfCfUfUfAeAe (antisense {P}-fUfUfGfUfCfUfCfUfGfGfUfCfCfU*fU*fA*fC*fU*fU*eA*eA; single-stranded RNA for RNAi)”, the “T1/2 (h) of full length modified ssRNA having a 5′-terminal phosphate group” value in data set [3] amounted to 4 h.
As for “ISIS 422391: modified ssRNA, SEQ ID NO 06: P-TdUfGfUfCfUfCfUfGfGfUfCfCfUfUfAfCfUfUfAeAe; d = 2′-O-DMAEAc (antisense {P}-[DMAEAc-T]fUfGfUfCfUfCfUfGfGfUfCfCfU*fU*fA*fC*fU*fU*eA*eA; single-stranded RNA for RNAi)”, the “T1/2 (h) of full length modified ssRNA having a 5′-terminal phosphate group” value in data set [3] is on record as 6.5 h.
In the case of “ISIS 432356: modified ssRNA, SEQ ID NO 06: P-TRUfGfUfCfUfCfUfGfGfUfCfCfUfUfAfCfUfUfAeAe; R = (R)-5′-methyl-2′-deoxyribonucleoside (antisense {P}-[5'R-Me-T]fUfGfUfCfUfCfUfGfGfUfCfCfU*fU*fA*fC*fU*fU*eA*eA; single-stranded RNA for RNAi)”, in data set [3], the “T1/2 (h) of full length modified ssRNA having a 5′-terminal phosphate group” value was found to be 8.7 h.
Turning to “ISIS 467074: modified ssRNA, SEQ ID NO 06: P-TScUfGmUfCmUfCmUfGmGfUmCfCmUfUmAfCmUfUmAeAe (antisense TUGUCUCUGGUCCUUACUUAA; 5'-phosphate, modified sugars, 2'-F/2'-OMe, MOE, chemistry not fully specified)”, in data set [1], the “Inhibition of PTEN in vivo (in words)” value was “lowest amount of PTEN reduction” and the “% inhibition of PTEN mRNA expression” value turned out to be 11%. In addition, in data set [2] (75 mg/kg, 48 h), the “Compound lacking the 5′-phosphate in tissue” value was “lacking the 5′-phosphate was detected” and the “Level … (in words)” value is given as “not detected”.
As for “ISIS 467076: 5′-methylenephosphonate ssRNA, SEQ ID NO 05: Py-meUmUfGmUfCmUfCmUfGmGfUmCfCmUfUmAfCmUfUmAeAe (antisense {Py}-mT*fU*mGfU*mCfU*mCfU*mGfG*mUfC*mCfU*mU*fA*mC*fU*mU*eA*eA; further chemistry not fully specified)”, in data set [1], the “Inhibition of PTEN in vivo (in words)” value is given as “smaller inhibition of PTEN” and the “% inhibition of PTEN mRNA expression” value amounted to 16%. Further, the “Level … (in words)” value in data set [2] (75 mg/kg, 48 h) is on record as “present at a lower concentration”.
